According to US10138212B2, “Aminoquinazoline compounds as A2A antagonist” (Merck Sharp & Dohme Corp., priority 2015, dated 2018):

Experiments:
human A2a receptor = human A2a receptor (Homo sapiens (Human), UniProt P29274); assay: A2a competition binding assay using Scintillation Proximity technology
Protocol: (§1) Binding affinities of compounds of the invention for the human A2a receptor were determined in a competition binding assay using Scintillation Proximity technology. Thus, 1* μg, or preferably 0.25 μg of membranes from HEK293 cells expressing the human A2a receptor were incubated with a compound of the invention at concentrations ranging from 3000 nM to 0.15 nM in a reaction mixture containing also 0.5 nM of a tritiated form of 5-amino-7-[2-phenethyl]-2-(furan-2-yl)-7H-pyrazolo[4,3-e][1,2,4]triazolo[1,5-c]pyrimidine (the tritiated compound) and 25 μg of wheat germ agglutin-coated yttrium silicate SPA beads for one hour at room temperature with agitation. The beads were then allowed to settle to the bottom of the wells for 1 hr, after which the membrane-associated radioactivity was determined by scintillation counting in a TopCount microplate reader. Ki values were determined using the Cheng-Prusoff equation.
HEK293 cells expressing the human, rat, dog or monkey adenosine 2a receptor (Purchased from Perkin-Elmer # RBHA2AM400UA).
The Tritiated compound was prepared in-house by MRL Radiochemistry according to published methods.
Wheat germ agglutinin-coated yttrium silicate SPA beads (GE Healthcare #RPNQ0023). Dilute to 25 mg/ml in assay buffer.
Assay Buffer was prepared in house: Dulbecco's calcium and magnesium free phosphate buffered saline+10 mM MgCl2
Adenosine deaminase from calf intestine, 10 mg/2 ml (Roche #10 102 105 001).
A2a antagonist standard (9-chloro-1-(2-furanyl)-[1,2,4]triazolo1,5-c]quinazolin-5-amine from Tocris Bioscience)
Make eight 1:3 serial dilutions in 100% DMSO from a 3 mM compound stock
Transfer 50 nl of compound into a 384-well OptiPlate (Perkin Elmer).
Typically, final concentrations of compound used in the assay ranged from 3000 nM to 0.152 nM.
Dilute a solution of the Tritiated compound to 1.25 nM in assay buffer. This is a 2.5× solution. The final concentration in the assay is 0.5 nM. Calculate the concentration by counting two 5 μl aliquots.
Use *1 ug or preferrably 0.25 ug of membrane/well. Dilute membranes to 9.7 μg/ml in assay buffer. Treat with 20 ug/ml adenosine deaminase (ADA) for 15 minutes at room temperature to degrade endogenous adenosine.
Use 25 μg/well wheat germ agglutinin-coated yttrium silicate SPA beads.
Mix ADA-treated membranes and SPA beads together for 30 min prior to assay.
To the Perkin-Elmer Optiplate-384 containing the compound titration add 20 μl of 2.5× solution of the Tritiated compound and 30 μl of the membrane-bead mixture. Incubate for one hour at room temperature with agitation.
Include total binding (assay buffer+1% DMSO) and non-specific binding (CGS15943, 1 μM) wells.
Allow the beads to settle for one hour.
A curve fitting program (i.e., Prism, Activity Base, Chemcart) is used to determine the EC50. The Ki value is calculated using the Cheng-Prusoff equation. Ki=EC50/(1+(radioligand concentration/Kd))
Using the foregoing assay method, the Ki results were obtained using the compounds of the invention described in Tables IIIa, IIIb, and IV. Each example compound tested is reported in the following format: Example number: A2a Ki reported in nM. Thus, for example, the compound Ex-1 was determined to have an Ki using the above-described assay and calculations, of 10.0 nM.

human A1 receptor = human A1 receptor (Homo sapiens (Human), UniProt P30542); assay: A1 competition binding assay using Scintillation Proximity technology; selectivity = A1 binding Ki / A2a binding Ki; conditions: A1 binding Ki divided by A2a binding Ki
Protocol: as §1, with “A1” for “A2a”, “5” for “1* μg, or preferably 0.25 μg”, “CHO-K1” for “HEK293”, “0.7” for “0.5”, “8-Cyclopentyl-1,3-dipropylxanthine” for “5-amino-7-[2-phenethyl]-2-(furan-2-yl)-7H-pyrazolo[4,3-e][1,2,4]triazolo[1,5-c]pyrimidine”, “in a similar fashion described with A2a binding.” for “using the Cheng-Prusoff equation.”
• Cells expressing the human, rat, dog or monkey adenosine 1 receptor (Purchased from Perkin-Elmer # ES-010-M400UA • [^3H]DPCPX (purchased from Perkin-Elmer NET-974, 8-cyclopentyl-1,3-dipropylxanthine, [dipropyl-2,3-^3H(N)]. • Wheatgerm agglutinin-coated yttrium silicate SPA beads (Purchased from GE Healthcare #RPNQ0023). Dilute to 25 mg/ml in assay buffer. Store at 4° C. • Assay Buffer—Dulbecco's phosphate buffered saline without calcium and without magnesium+10 mM MgCl2 • Adenosine deaminase from calf intestine, 10 mg/2 ml (Roche #10 102 105 001). • DMSO • DPCPX (A1 antagonist) from Tocris Bioscience Compound Dilution • Dilute compounds to 1 mM in 100% DMSO
Make serial dilutions as necessary (i.e., 1:10, 1:3) in 100% DMSO.
Dilute 1:20 into assay buffer (i.e. 3 ul into 57 ul buffer). This is a 5× solution in 5% DMSO.
• Dilute [^3H]DPCPX to 1.75 nM in assay buffer. This is a 2.5× solution. The final concentration in the assay is 0.7 nM. Calculate the concentration by counting two 5 ul aliquots. Membrane Preparation • Use 5 ug of membrane/well. Dilute membranes to 250 ug/ml in assay buffer. Treat with 20 ug/ml adenosine deaminase (ADA) for 15 minutes at room temperature to degrade endogenous adenosine. Membrane-Bead Mixture • Use 25 ug/well wheatgerm agglutinin-coated yttrium silicate SPA beads • Mix ADA-treated membranes and SPA beads together for 30 min prior to assay. Assay Assembly • Add in order to a Perkin-Elmer Optiplate-384: 10 ul of 5× compound, 20 ul of 2.5× [^3H]DPCPX, 20 ul membrane-bead mixture. Incubate for one hour at room temperature with agitation. • Include total binding (assay buffer+1% DMSO) and non-specific binding (DPCPX, 1 uM) wells. Counting and Calculations

[1] = 0.25 μg of membranes from HEK293 cells expressing the human A2a receptor
[2] = * assay run with 1 μg of membranes versus 0.25 μg, HEK293 cells expressing the human A2a receptor

human A2a receptor, sequence (P29274 whole entry): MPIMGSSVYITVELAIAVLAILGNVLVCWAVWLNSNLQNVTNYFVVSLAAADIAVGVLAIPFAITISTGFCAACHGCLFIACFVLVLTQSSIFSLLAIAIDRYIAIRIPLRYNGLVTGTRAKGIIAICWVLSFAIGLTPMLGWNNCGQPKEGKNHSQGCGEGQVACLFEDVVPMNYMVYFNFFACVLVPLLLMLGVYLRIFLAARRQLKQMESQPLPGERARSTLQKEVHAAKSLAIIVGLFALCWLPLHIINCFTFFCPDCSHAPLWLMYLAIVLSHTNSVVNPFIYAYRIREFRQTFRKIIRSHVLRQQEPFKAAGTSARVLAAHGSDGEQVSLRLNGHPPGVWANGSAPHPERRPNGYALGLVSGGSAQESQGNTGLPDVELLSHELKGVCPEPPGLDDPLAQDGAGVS
human A1 receptor, sequence (P30542 whole entry): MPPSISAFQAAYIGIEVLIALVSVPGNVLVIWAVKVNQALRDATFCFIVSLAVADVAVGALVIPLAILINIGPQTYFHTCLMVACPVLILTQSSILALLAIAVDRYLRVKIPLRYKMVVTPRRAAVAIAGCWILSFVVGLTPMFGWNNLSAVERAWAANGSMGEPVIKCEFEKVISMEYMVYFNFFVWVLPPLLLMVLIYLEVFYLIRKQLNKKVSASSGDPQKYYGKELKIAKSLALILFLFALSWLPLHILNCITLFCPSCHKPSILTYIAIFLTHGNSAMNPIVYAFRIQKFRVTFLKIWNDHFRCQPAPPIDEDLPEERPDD

## C[C@@H](NC(=O)c1nc(N)nc2c(F)cccc12)c1cccc2cccnc12 [Example 88, 2-amino-8-fluoro-N-[(1R)-1-(8-quinolyl)ethyl]quinazoline-4-carboxamide]
Human A2a receptor; [1]
  Ki: 6.7 nM
Human A1 receptor
  A2a selectivity (A2a A1 binding selectivity): 8

## COc1cccc2c(C(=O)NCc3cccc(CN4CCOCC4)c3)nc(N)nc12 [Example 53, 2-amino-8-methoxy-N-[[3-(morpholinomethyl)phenyl]methyl]quinazoline-4-carboxamide]
Human A2a receptor; [1]
  Ki: 7.1 nM
Human A1 receptor
  A2a selectivity (A2a A1 binding selectivity): 63

## COc1cccc2c(C(=O)NCc3nc(C)ccc3F)nc(N)nc12 [Example 20, 2-amino-N-[(3-fluoro-6-methyl-2-pyridyl)methyl]-8-methoxy-quinazoline-4-carboxamide]
Human A2a receptor; [1]
  Ki: 0.5 nM
Human A1 receptor
  A2a selectivity (A2a A1 binding selectivity): 89

## Nc1nc(C(=O)NCc2cccc(CO)n2)c2cccc(F)c2n1 [Example 57, 2-amino-8-fluoro-N-[[6-(hydroxymethyl)-2-pyridyl]methyl]quinazoline-4-carboxamide]
Human A2a receptor; [1]
  Ki: 9.6 nM
Human A1 receptor
  A2a selectivity (A2a A1 binding selectivity): 67

## Nc1nc(C(=O)NCc2cccc3cccnc23)c2cccc(C(F)(F)F)c2n1 [Example 92, 2-amino-N-(8-quinolylmethyl)-8-(trifluoromethyl)quinazoline-4-carboxamide]
Human A2a receptor; [1]
  Ki: 2.3 nM
Human A1 receptor
  A2a selectivity (A2a A1 binding selectivity): 560

## Nc1nc(C(=O)NCc2ncccn2)c2cccc(I)c2n1 [Example 99, 2-amino-8-iodo-N-(pyrimidin-2-ylmethyl)quinazoline-4-carboxamide]
Human A2a receptor; [1]
  Ki: 229 nM
Human A1 receptor
  A2a selectivity (A2a A1 binding selectivity): 8

## COc1cccc2c(C(=O)NC3(c4ccccn4)CC3)nc(N)nc12 [Example 40, 2-amino-8-methoxy-N-[1-(2-pyridyl)cyclopropyl]quinazoline-4-carboxamide]
Human A2a receptor; [1]
  Ki: 929 nM
Human A1 receptor
  A2a selectivity (A2a A1 binding selectivity): 3

## Cc1cccn2cc(CNC(=O)c3nc(N)nc4c(F)cccc34)nc12 [Example 81, 2-amino-8-fluoro-N-[(8-methylimidazo[1,2-a]pyridin-2-yl)methyl]quinazoline-4-carboxamide]
Human A2a receptor; [1]
  Ki: 6.9 nM
Human A1 receptor
  A2a selectivity (A2a A1 binding selectivity): 12

## COC(=O)c1cccc(CNC(=O)c2nc(N)nc3c(F)cccc23)n1 [Example 75, methyl 6-[[(2-amino-8-fluoro-quinazoline-4-carbonyl)amino]methyl]pyridine-2-carboxylate]
Human A2a receptor; [2]
  Ki: 23 nM
Human A1 receptor
  A2a selectivity (A2a A1 binding selectivity): 14

## N#Cc1cccc2c(C(=O)NCc3cccc4cccnc34)nc(N)nc12 [Example 100, 2-amino-8-cyano-N-(8-quinolylmethyl)quinazoline-4-carboxamide]
Human A2a receptor; [1]
  Ki: 2.1 nM
Human A1 receptor
  A2a selectivity (A2a A1 binding selectivity): 163

## COc1cccc2c(C(=O)NCc3nc(C)ccc3C)nc(N)nc12 [Example 11, 2-amino-N-[(3,6-dimethyl-2-pyridyl)methyl]-8-methoxy-quinazoline-4-carboxamide]
Human A2a receptor; [1]
  Ki: 0.2 nM
Human A1 receptor
  A2a selectivity (A2a A1 binding selectivity): 208

## COc1cccc2c(C(=O)NC3CCc4cccnc43)nc(N)nc12 (stereo not shown) [Example 32, 2-amino-N-(6,7-dihydro-5H-cyclopenta[b]pyridin-7-yl)-8-methoxy-quinazoline-4-carboxamide]
Human A2a receptor; [1]
  Ki: 1.8 nM
Human A1 receptor
  A2a selectivity (A2a A1 binding selectivity): 370

## Nc1nc(C(=O)NCc2ccccc2-n2cccn2)c2cccc(F)c2n1 [Example 62, 2-amino-8-fluoro-N-[(2-pyrazol-1-ylphenyl)methyl]quinazoline-4-carboxamide]
Human A2a receptor; [1]
  Ki: 0.5 nM
Human A1 receptor
  A2a selectivity (A2a A1 binding selectivity): 297

## [2H]C([2H])(NC(=O)c1nc(N)nc2c(OC)cccc12)c1cccc(C([2H])([2H])c2cccc(OCCOC)c2)n1 [Example 106, 2-amino-N-[dideuterio-[6-[dideuterio-[3-(2-methoxyethoxy)phenyl]methyl]-2-pyridyl]methyl]-8-methoxy-quinazoline-4-carboxamide]
Human A2a receptor; [2]
  Ki: 1.9 nM
Human A1 receptor
  A2a selectivity (A2a A1 binding selectivity): 70
